In paper PMC2797373 (Bioorganic & medicinal chemistry, 2009):

biological target: human A2AAR (Homo sapiens, UniProt P29274); experiment: Radioligand binding at human A2AAR expressed in CHO cells; details: read-out: % inhibition at 1 µM (hA2AAR)
Sequence (P29274 whole entry): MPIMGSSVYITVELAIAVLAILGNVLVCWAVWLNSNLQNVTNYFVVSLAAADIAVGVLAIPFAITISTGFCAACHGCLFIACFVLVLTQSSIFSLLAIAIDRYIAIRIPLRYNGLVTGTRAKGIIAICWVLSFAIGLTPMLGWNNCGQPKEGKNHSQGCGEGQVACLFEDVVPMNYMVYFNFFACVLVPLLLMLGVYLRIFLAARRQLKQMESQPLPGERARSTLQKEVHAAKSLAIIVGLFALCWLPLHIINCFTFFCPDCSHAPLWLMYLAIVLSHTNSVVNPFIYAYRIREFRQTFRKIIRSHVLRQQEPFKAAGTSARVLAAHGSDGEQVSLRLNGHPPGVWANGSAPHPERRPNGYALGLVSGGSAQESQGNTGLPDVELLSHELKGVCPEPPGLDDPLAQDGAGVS

inhibition at 1 µM [%] | SMILES
20 | CNC(=O)[C@H]1S[C@@H](n2cnc3c(NC)nc(Cl)nc32)[C@H](O)[C@@H]1O [Compound 4, reference compound]
35 ± 8 | CNC(=O)[C@H]1S[C@@H](n2cnc3c(NC)ncnc32)[C@H](O)[C@@H]1O [Compound 5a, N^6-Methyl-9-(5’-methylaminocarbonyl-4’-thio-β-D-ribofuranosyl)adenine]
20 | CCNC(=O)[C@H]1S[C@@H](n2cnc3c(NC)ncnc32)[C@H](O)[C@@H]1O [Compound 5b, 9-(5’-Ethylaminocarbonyl-4’-thio-β-D-ribofuranosyl)-N^6-methyladenine]
38 ± 5 | CNc1ncnc2c1ncn2[C@@H]1S[C@H](C(=O)NCC2CC2)[C@@H](O)[C@H]1O [Compound 5d, 9-(5’-Cyclopropylmethylaminocarbonyl-4’-thio-β-D-ribofuranosyl)-N^6-methyladenine]
45 ± 1 | CNc1ncnc2c1ncn2[C@@H]1S[C@H](C(=O)NC2CCCC2)[C@@H](O)[C@H]1O [Compound 5f, 9-(5’-Cyclopentylaminocarbonyl-4’-thio-β-D-ribofuranosyl)-N^6-methyladenine]
27 ± 10 | CNc1ncnc2c1ncn2[C@@H]1S[C@H](C(=O)NCc2cccc(I)c2)[C@@H](O)[C@H]1O [Compound 5g, 9-[(5’-(3-Iodo-benzylaminocarbonyl)-4’-thio-β-D-ribofuranosyl)]-N^6-methyladenine]
24 ± 7 | O=C(NC1CCCCC1)[C@H]1S[C@@H](n2cnc3c(NCc4cccc(I)c4)ncnc32)[C@H](O)[C@@H]1O [Compound 5m, 9-(5’-Cyclohexylaminocarbonyl-4’-thio-β-D-ribofuranosyl)-N^6-(3-iodobenzyl)adenine]
35 ± 8 | O=C(NCc1cccc(F)c1)[C@H]1S[C@@H](n2cnc3c(NCc4cccc(I)c4)ncnc32)[C@H](O)[C@@H]1O [Compound 5n, 9-[5’-(3-Fluoro-benzylaminocarbonyl-4’-thio-β-D-ribofuranosyl)]-N^6-(3-iodobenzyl)adenine]
44 ± 1 | O=C(NCc1cccc(Cl)c1)[C@H]1S[C@@H](n2cnc3c(NCc4cccc(I)c4)ncnc32)[C@H](O)[C@@H]1O [Compound 5o, 9-[5’-(3-Chloro-benzylaminocarbonyl-4’-thio-β-D-ribofuranosyl)]-N^6-(3-iodobenzyl)adenine]
26 ± 10 | Cc1ccccc1CNC(=O)[C@H]1S[C@@H](n2cnc3c(NCc4cccc(I)c4)ncnc32)[C@H](O)[C@@H]1O [Compound 5p, N^6-(3-Iodo-benzyl)-9-[5’-(2-methyl-benzylaminocarbonyl-4’-thio-β-D-ribofuranosyl)]adenine]
31 ± 1 | Cc1cccc(CNC(=O)[C@H]2S[C@@H](n3cnc4c(NCc5cccc(I)c5)ncnc43)[C@H](O)[C@@H]2O)c1 [Compound 5q, N^6-(3-Iodo-benzyl)-9-[5’-(3-methyl-benzylaminocarbonyl-4’-thio-β-D-ribofuranosyl)]adenine]
37 | Cc1ccc(CNC(=O)[C@H]2S[C@@H](n3cnc4c(NCc5cccc(I)c5)ncnc43)[C@H](O)[C@@H]2O)cc1 [Compound 5r, N^6-(3-Iodo-benzyl)-9-[5’-(4-methyl-benzylaminocarbonyl-4’-thio-β-D-ribofuranosyl)]adenine]
28 ± 9 | COc1ccccc1CNC(=O)[C@H]1S[C@@H](n2cnc3c(NCc4cccc(I)c4)ncnc32)[C@H](O)[C@@H]1O [Compound 5s, N^6-(3-Iodo-benzyl)-9-[5’-(2-methoxy-benzylaminocarbonyl-4’-thio-β-D-ribofuranosyl)]adenine]
23 ± 8 | CCOc1ccccc1CNC(=O)[C@H]1S[C@@H](n2cnc3c(NCc4cccc(I)c4)ncnc32)[C@H](O)[C@@H]1O [Compound 5t, 9-[5’-(2-Ethoxy-benzylaminocarbonyl-4’-thio-β-D-ribofuranosyl)]-N^6-(3-iodobenzyl)adenine]
11 | O=C(NCCc1ccccc1)[C@H]1S[C@@H](n2cnc3c(NCc4cccc(I)c4)ncnc32)[C@H](O)[C@@H]1O [Compound 5v, N^6-(3-Iodo-benzyl)-9-[5’-(2-phenetylaminocarbonyl-4’-thio-β-D-ribofuranosyl)]adenine]

biological target: T1, human A3 adenosine receptor (Homo sapiens, UniProt P0DMS8); experiment: not given; type: cell-based; details: transfected CHO cells
T1 sequence (P0DMS8 1-318): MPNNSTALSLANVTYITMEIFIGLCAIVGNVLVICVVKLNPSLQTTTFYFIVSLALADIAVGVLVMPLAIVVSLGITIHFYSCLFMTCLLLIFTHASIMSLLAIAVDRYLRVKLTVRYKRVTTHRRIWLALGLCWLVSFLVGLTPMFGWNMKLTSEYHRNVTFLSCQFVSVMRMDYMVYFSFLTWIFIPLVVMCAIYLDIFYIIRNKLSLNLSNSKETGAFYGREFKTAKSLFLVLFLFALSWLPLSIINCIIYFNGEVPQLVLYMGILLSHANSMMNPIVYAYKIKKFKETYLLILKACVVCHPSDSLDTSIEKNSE

Agonist efficacy at human A3AR (inhibition of cyclic AMP) | SMILES
full agonist | CNC(=O)[C@H]1S[C@@H](n2cnc3c(NCc4cccc(I)c4)ncnc32)[C@H](O)[C@@H]1O [Compound 5h, N^6-(3-Iodo-benzyl)-9-(5’-methylaminocarbonyl-4’-thio-β-D-ribofuranosyl)adenine]

tested on: not given; experiment: not given; details: cited from earlier work

SMILES | In vitro anticancer activity
CNC(=O)[C@H]1S[C@@H](n2cnc3c(NCc4cccc(I)c4)nc(Cl)nc32)[C@H](O)[C@@H]1O [Compound 3, thio-Cl-IB-MECA] | potent

tested on: not given; experiment: not given; details: cited from earlier work; remark: another data set of the same source

SMILES | In vivo anticancer activity
CNC(=O)[C@H]1S[C@@H](n2cnc3c(NCc4cccc(I)c4)nc(Cl)nc32)[C@H](O)[C@@H]1O [Compound 3, thio-Cl-IB-MECA] | potent
